# Measured values: US9340554B2, “IRAK inhibitors and uses thereof” (Nimbus Iris, Inc., priority 2011, dated 2016)
# Read-outs that look alike come from different tables or passages of the source.
# Experiments:
# [1] = molecular target: T1, IRAK4 (Homo sapiens, UniProt Q9NWZ3); experiment: IRAK-4 activity inhibition assay (Caliper, Peptide 8, 37 μM ATP); type: biochemical; settings: 3.5 nM IRAK4, 1.5 μM Peptide 8, 37 μM ATP, 28° C. 40 minutes; read-out: IRAK-4 activity inhibition IC50
# T1 construct: purchased CARNA Bioscience 09-145
# T1 sequence (Q9NWZ3 1-460): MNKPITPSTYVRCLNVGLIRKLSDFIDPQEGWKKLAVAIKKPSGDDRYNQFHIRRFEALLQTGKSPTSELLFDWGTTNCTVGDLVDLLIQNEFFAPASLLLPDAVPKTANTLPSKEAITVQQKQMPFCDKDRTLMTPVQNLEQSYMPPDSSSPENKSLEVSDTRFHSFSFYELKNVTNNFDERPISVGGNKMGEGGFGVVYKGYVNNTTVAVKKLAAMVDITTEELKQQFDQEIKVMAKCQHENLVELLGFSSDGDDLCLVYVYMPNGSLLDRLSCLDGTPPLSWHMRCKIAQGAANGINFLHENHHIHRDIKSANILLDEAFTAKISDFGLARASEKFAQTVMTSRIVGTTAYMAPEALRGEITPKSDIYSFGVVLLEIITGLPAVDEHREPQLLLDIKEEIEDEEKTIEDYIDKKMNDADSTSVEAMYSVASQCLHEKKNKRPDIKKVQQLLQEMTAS
# [2] = tested on: LPS induced TNFα production in THP-1 cells; experiment: LPS induced THP-1 cell cytokine production assay, TNFα (HTRF); type: cell-based; settings: Homo sapiens
# Method: (§1) Provided compounds were also assayed in an LPS (Lipopolysacharide) induced THP-1 cell cytokine (TNFα and IL8) production assay. The protocol for this assay was as follows below. THP-1 cells from ATCC (TIB-202) were cultured in RPMI Medium 1640 (Invitrogen, Cat No. […] LPS-EK ultra pure (Invivogen, Cat No. tlrl-peklps) was used to induce IL8 and TNFα production, that was detected in the cell culture supernatant by IL8 HTRF kit (Cisbio, Cat No. 62IL8PEB) and TNFα HTRF kit (Cisbio, Cat No. 62[…]), as per manufacturer instructions. Cells were cultured in 96 well assay plates at 100,000 cells per well, and compounds diluted in final 0.3% DMSO were pre-incubated with cells for 1 hour prior to stimulation with 300 ng/mL LPS. […] The compound numbers correspond to the compound numbers in Table 1.
# [3] = tested on: LPS induced IL8 production in THP-1 cells; experiment: LPS induced THP-1 cell cytokine production assay, IL8 (HTRF); type: cell-based; settings: Homo sapiens
# Method: as §1
# [4] = THP-1 cells, 300 ng/mL LPS, 1 hour pre-incubation, supernatant at 5 hours, read-out: TNFα production IC50
# [5] = THP-1 cells, 300 ng/mL LPS, 1 hour pre-incubation, supernatant at 5 hours / 16 hours, read-out: IL8 production IC50
Structure (SMILES),IC50 [1],"IC50 [2, 4]","IC50 [3, 5]","IC50 ([2]; THP-1, read-out: TNFα production IC50)","IC50 ([3]; THP-1, read-out: IL8 production IC50)"
CN(CC(=O)N1CCCC1)[C@H]1CC[C@H](Oc2ncnc3sc4c(c23)CCC4)CC1 [Compound I-133],< 5000 nM,1000 to 5000 nM,1000 to 5000 nM,–,–
"CN(C)[C@H]1CC[C@H](Nc2ncnc3sc4c(c23)CCC4)CC1 [Compound I-12, trans-N^1-(6,7-dihydro-5H-cyclopenta[4,5]thieno[2,3-d]pyrimidin-4-yl)-N^4,N^4-dimethylcyclohexane-1,4-diamine]",–,–,–,500 to 1000 nM,500 to 1000 nM
"CN(CC(=O)N1CCCC1)[C@H]1CC[C@H](Nc2ncnc3sc4c(c23)CCC4)CC1 [Compound I-124, 2-[methyl[4-([7-thia-9,11-diazatricyclo[6.4.0.0[2,6]]dodeca-1(12),2(6),8,10-tetraen-12-yl]amino)cyclohexyl]amino]-1-(pyrrolidin-1-yl)ethan-1-one]",< 5000 nM,1000 to 5000 nM,500 to 1000 nM,–,–
"CN(C)[C@H]1CC[C@H](Nc2nc(Nc3ccccc3)nc3sc4c(c23)CCC4)CC1 [Compound I-201, 12-N-[4-(dimethylamino)cyclohexyl]-10-N-phenyl-7-thia-9,11-diazatricyclo[6.4.0.0[2,6]]dodeca-1(8),2(6),9,11-tetraene-10,12-diamine]",–,1000 to 5000 nM,1000 to 5000 nM,–,–
"CN(Cc1ccccc1)[C@H]1CC[C@H](Nc2ncnc3sc4c(c23)CCC4)CC1 [Compound I-151, (1r,4r)-N1-benzyl-N4-(6,7-dihydro-5H-cyclopenta[4,5]thieno[2,3-d]pyrimidin-4-yl)-N1-methylcyclohexane-1,4-diamine]",< 5000 nM,–,–,–,–
